Here are results for four molecules from ChEMBL document CHEMBL1201862, “PubChem BioAssay data set” (2004).

For test [1], the target named is DNA dC->dU-editing enzyme APOBEC-3G (Homo sapiens, UniProt Q9HC16). The experiment in a line: inhibition of APOBEC3G ssDNA deamination – biochemical, fluorescence, single-stranded DNA substrate, SAR follow-up (AID 602136). It is filed as functional. Particulars: read-out: IC50_Mean.
The target of test [2] is DNA dC->dU-editing enzyme APOBEC-3A (Homo sapiens, UniProt P31941). In words: SAR analysis of small molecule inhibitors of APOBEC3A DNA Deaminase via a fluorescence-based single-stranded DNA deaminase assay. Type of test: functional. Particulars: read-out: IC50_Mean.
Test [3] deals with HEK293. In words: inhibition of NOD1-driven NF-kB reporter – cell-based, luminescence, uHTS, primary screen (AID 1578). Type of test: functional. The note with it: Homo sapiens.
Test [4] concerns HEK293. In words: cells. It is filed as functional, cell-based. The note with it: Homo sapiens.
Test [5] relates to HEK293. In words: cells. It is filed as functional, cell-based. Particulars: Homo sapiens. This is another data set of the same source.
Test [6] is described as follows: Trypanosoma cruzi growth suppression in host cells – NIH3T3 host cells, beta-gal luminescence, confirmation (AID 2044).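 Also: intracellular parasites grown in NIH/3T3 mouse fibroblasts as host cells; luminescent beta-galactosidase reporter signal from transgenic T. cruzi replicating inside host cells; inhibitors lower the luminescence signal.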 Type of test: functional, cell-based.
Test [7] in a line: NIH3T3 cell viability loss – ATP luminescence, mouse fibroblasts, counter-screen, dose response (AID 2010).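 Also: cells exposed to compound for about 90 hours before reading.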 Type of test: functional, cell-based. On the technique in general: A counterscreen serves to expose hits that act by an unwanted route or on another target.
The target in test [8] is T1, Heat shock factor protein 1 (Mus musculus, UniProt P38532).
T1 sequence (P38532 whole entry): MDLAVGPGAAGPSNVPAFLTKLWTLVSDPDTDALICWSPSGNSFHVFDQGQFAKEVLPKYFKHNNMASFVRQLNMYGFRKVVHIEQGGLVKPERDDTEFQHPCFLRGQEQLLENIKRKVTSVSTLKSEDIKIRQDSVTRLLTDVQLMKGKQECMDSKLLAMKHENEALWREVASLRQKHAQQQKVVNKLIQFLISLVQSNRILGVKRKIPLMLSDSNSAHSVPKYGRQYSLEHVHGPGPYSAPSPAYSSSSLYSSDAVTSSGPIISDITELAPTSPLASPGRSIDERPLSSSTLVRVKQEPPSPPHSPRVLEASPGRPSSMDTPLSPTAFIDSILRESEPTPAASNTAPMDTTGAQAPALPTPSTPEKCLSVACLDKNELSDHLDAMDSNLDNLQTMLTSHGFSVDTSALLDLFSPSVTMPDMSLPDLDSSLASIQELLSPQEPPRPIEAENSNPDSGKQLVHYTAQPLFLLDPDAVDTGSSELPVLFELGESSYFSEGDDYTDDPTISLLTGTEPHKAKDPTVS
In words: enhancement of HSF1-driven luciferase signal – cell-based, NIH3T3, luminescence, dose retest, confirmation (AID 435004).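 Also: stress induced by proteasome inhibitor MG132 added 30 min after compound; luciferase reporter driven by HSF1 response element in NIH3T3 cells; actives raise luminescence as potentiators of the MG132 stress response.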 Type of test: functional.

Test [9] can be described thus: decrease of insulin promoter-GFP reporter – imaging, high-content screening, mouse beta cells (AID 1628). It is filed as functional. The note with it: MIN6.
Test [10] can be described thus: MIN6 cell viability loss – mouse insulinoma, cytotoxicity control, dose response (AID 2122).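 Also: confirmatory high-throughput counterscreen run to flag cytotoxic compounds.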 Type of test: functional.
The nature of test [11]: reduction of Shn3 3'UTR-driven luciferase in osteoblasts – cell-based, Clone20 osteoblasts, firefly luciferase, cherry-picked, dose response (AID 624132).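 Also: firefly luciferase luminescence from reporter carrying the Shn3 3'UTR in osteoblasts.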 Type of test: functional.
Test [12] is described as follows: loss of viability in HepG2 cells – cell-based, CellTiter-Glo, cherry-picked, cytotoxicity control for Shn3 inhibitor project, dose response (AID 624134). Type of test: functional. (In general: ATP-based viability assays read luminescence as a measure of living cells.)
Test [13] is described as follows: non-specific 3'UTR reporter inhibition in Clone20-Shn3RL – cell-based, Renilla luciferase, cherry-picked, counter-screen for Shn3 inhibitor project, dose response (AID 624133). Type of test: functional.
The nature of test [14]: blockers of HIV-1 envelope-mediated cell-cell fusion – cherry-pick, dose response (AID 652057). It is filed as functional, cell-based.
The nature of test [15]: viability loss in CEM21 cells – cell-based, CellTiter-Glo luminescence, cherry-picked, cytotoxicity control for viral fusion inhibitor project, dose response (AID 652042).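 Also: potency for signal decrease meaning cytotoxicity.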 It is filed as functional.
The nature of test [16]: blockers of HIV-1 ZM109 envelope-driven cell-cell fusion – HeLa effector, CEM target cells, luciferase, cherry-pick, dose response (AID 652058).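 Also: luciferase signal from HIV-1 Env mediated cell-cell fusion of effector and target cells.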 It is filed as functional, cell-based.
Test [17] can be described thus: off-target signal loss in HeLa-CEM21 co-culture – HeLa F-luc CTL cells, cherry-picked, counter-screen for HIV-1 Env fusion inhibitor project, dose response (AID 652040).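 Also: potency for signal decrease marking cytotoxic or nonspecific inhibition.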 Type of test: functional, cell-based.
Test [18] is described as follows: luciferase reporter signal suppression in cells – H4 neuroglioma cells, luminescence, dose response (AID 1990). Type of test: functional, cell-based. (In general: A reporter such as luciferase makes a cellular process visible.)
In test [19] the target is E3 ubiquitin-protein ligase Mdm2 (Homo sapiens, UniProt Q00987). The experiment in a line: MDM2-luc reporter signal enhancers, multi-concentration potency testing, MDM2 ubiquitin-protein ligase inhibitor program, whole-cell format, luminescence detection, 384-well microplate (AID 1394).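 Also: MDM2 E3 inhibitors raise luminescence so EC50 is for signal enhancement.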 It is filed as functional.
Test [20] can be described thus: Luminescence Cell-Based Dose Response HTS to Identify Inhibitors of 5'UTR Stem-Loop Driven Prion Protein mRNA Translation in H4 Neuroglioblastoma Cells. [Related pubchem assays: 1827 (Project Summary), 1813 (Primary HTS)]. Type of test: functional.
In test [21] the target is Beta-galactosidase (Escherichia coli, UniProt Q8VNN2). In words: PubChem AID 485352. Type of test: functional.
Test [22] has as its target G-protein coupled receptor 55 (Homo sapiens, UniProt Q9Y2T6). The experiment in a line: inhibition of LPI-stimulated GPR55 beta-arrestin translocation – imaging, U2OS, beta-arrestin-GFP, LPI agonist, primary screen (AID 2013).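 Also: antagonist potency measured as reduced agonist-driven arrestin aggregation.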 Type of test: functional.
Test [23] deals with T2, Type-1 angiotensin II receptor (Homo sapiens, UniProt P30556).
T2 sequence (P30556 whole entry): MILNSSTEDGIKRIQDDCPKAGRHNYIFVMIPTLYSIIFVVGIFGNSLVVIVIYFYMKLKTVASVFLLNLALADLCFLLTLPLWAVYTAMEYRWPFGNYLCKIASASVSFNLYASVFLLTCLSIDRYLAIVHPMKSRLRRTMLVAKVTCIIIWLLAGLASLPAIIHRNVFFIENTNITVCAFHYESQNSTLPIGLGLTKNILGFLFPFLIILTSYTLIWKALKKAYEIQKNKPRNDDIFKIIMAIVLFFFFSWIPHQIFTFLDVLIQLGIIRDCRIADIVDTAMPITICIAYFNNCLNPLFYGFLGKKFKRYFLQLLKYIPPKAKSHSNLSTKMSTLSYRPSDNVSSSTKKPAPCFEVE
In words: antagonism of angiotensin II type 1 receptor – cell-based, uHTS hits, selectivity assay for APJ receptor antagonist project, dose response (AID 463214).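 Also: antagonist potency against angiotensin II stimulated AT1 response.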 Type of test: functional.

The test system of test [24] is Jurkat. In words: blockers of NF-kB activation in T cells – Jurkat, luciferase reporter, luminescence, B- and T-cell, dose response (AID 489004).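 Also: NF-kB luciferase reporter Jurkat cells stimulated with PMA plus ionomycin.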 It is filed as functional, cell-based. The note with it: Homo sapiens.
Test [25] can be described thus: HEK-293T viability loss, compound-treated – cell-based, uHTS hits, cytotoxicity control for B/T-cell NF-kB inhibitor project, dose response (AID 489019).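 Also: IC50 reflects cytotoxicity as loss of cell viability.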 It is filed as functional.
Test [26] concerns INS1. The experiment in a line: INS-1E survival protection against cytokine death – cell-based, luminescence, retest, dose response (AID 449756).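 Also: cell death triggered by IL-1 beta plus TNF-alpha plus IFN-gamma mixture; protective hits raise ATP signal compared with cytokine alone wells.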 It is filed as functional. Particulars: Rattus norvegicus.
For test [27], the target named is Photoreceptor-specific nuclear receptor (Homo sapiens, UniProt Q9Y5X4). Type of test: functional, cell-based.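 Also: CHO-S cells with Gal4-NCOR and VP16-NR2E3 two-hybrid luciferase reporter.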

Structures are written as SMILES. The source made the active and inactive calls.

Chain of Photoreceptor-specific nuclear receptor (Q9Y5X4 whole entry, the tested form may be a part): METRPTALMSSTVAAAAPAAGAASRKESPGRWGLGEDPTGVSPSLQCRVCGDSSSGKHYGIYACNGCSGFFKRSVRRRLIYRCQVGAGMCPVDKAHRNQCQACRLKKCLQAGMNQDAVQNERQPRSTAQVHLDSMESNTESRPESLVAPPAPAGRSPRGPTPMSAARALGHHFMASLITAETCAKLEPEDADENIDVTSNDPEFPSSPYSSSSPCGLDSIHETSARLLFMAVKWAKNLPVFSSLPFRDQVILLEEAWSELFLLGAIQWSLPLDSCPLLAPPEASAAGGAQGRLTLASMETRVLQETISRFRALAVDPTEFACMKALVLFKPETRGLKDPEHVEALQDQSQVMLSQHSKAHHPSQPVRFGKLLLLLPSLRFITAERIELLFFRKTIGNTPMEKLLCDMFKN
Chain of G-protein coupled receptor 55 (Q9Y2T6 whole entry): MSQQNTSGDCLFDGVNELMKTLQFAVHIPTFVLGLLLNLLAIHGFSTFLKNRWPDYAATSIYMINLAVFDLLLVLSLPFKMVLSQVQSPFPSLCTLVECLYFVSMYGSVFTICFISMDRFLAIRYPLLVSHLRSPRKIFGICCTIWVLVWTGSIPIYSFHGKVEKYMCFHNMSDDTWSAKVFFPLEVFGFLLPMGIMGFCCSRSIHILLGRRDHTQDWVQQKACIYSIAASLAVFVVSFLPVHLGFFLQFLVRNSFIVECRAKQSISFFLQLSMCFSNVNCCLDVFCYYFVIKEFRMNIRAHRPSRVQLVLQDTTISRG
Chain of E3 ubiquitin-protein ligase Mdm2 (Q00987 whole entry): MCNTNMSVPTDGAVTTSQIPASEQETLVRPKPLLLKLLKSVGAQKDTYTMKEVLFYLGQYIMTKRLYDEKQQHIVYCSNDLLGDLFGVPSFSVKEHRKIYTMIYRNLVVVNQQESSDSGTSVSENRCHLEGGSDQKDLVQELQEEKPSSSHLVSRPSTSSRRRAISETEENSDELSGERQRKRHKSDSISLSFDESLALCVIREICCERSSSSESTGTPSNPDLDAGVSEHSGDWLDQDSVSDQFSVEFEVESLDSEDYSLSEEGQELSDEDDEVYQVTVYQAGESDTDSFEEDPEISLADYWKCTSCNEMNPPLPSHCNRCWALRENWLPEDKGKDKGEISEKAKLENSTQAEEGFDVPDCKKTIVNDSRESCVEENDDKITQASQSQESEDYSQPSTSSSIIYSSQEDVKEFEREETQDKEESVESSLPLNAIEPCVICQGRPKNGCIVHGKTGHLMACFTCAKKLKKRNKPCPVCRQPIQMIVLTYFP
Chain of Beta-galactosidase (Q8VNN2 whole entry): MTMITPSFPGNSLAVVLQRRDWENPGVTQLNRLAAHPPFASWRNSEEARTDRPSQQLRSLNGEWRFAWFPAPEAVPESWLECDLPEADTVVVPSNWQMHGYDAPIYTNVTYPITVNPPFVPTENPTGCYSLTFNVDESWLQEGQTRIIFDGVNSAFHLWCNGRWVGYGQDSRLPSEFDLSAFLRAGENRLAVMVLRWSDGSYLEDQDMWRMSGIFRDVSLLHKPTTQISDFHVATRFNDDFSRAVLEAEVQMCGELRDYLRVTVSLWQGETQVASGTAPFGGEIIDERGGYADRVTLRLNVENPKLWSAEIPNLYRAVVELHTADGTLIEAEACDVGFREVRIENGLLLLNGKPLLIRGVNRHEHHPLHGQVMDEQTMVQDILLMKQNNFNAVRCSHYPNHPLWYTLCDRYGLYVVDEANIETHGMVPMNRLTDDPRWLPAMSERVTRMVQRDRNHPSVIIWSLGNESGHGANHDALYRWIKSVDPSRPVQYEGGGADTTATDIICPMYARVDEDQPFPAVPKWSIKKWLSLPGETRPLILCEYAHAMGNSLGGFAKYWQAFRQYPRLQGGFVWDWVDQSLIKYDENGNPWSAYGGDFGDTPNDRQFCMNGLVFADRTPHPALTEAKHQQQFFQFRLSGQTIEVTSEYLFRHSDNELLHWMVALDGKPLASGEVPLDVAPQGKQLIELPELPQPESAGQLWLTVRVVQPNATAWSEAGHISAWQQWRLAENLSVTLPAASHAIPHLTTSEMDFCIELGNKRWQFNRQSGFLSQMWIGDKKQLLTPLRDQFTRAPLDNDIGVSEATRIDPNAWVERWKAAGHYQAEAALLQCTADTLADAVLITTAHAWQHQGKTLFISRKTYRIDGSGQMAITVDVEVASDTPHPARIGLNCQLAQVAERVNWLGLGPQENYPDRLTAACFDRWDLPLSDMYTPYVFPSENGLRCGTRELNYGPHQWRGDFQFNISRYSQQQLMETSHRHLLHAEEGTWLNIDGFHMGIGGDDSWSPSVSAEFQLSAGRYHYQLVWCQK
Chain of DNA dC->dU-editing enzyme APOBEC-3G (Q9HC16 whole entry): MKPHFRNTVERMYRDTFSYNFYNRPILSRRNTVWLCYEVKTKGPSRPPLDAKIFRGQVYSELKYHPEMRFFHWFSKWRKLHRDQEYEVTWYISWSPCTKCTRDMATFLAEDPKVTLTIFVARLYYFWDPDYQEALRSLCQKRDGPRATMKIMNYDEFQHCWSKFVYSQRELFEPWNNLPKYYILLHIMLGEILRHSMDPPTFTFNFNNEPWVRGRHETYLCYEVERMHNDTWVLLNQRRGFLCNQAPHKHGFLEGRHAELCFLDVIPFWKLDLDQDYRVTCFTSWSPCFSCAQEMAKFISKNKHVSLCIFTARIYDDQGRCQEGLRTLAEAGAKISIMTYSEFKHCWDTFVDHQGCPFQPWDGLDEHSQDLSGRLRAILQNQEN
Chain of DNA dC->dU-editing enzyme APOBEC-3A (P31941 whole entry): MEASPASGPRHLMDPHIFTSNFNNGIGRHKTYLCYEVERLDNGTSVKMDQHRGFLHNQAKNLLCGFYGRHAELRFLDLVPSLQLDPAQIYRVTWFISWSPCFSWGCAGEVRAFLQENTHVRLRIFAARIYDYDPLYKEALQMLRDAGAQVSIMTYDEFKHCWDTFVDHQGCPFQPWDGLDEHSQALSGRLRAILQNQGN

`O=C(CSc1nnc2scc(-c3ccccc3)n12)Nc1cccc(C(F)(F)F)c1`: the IC50 in test [1] and in test [2] was > 99 µM (inactive) each time.

Usually EC50 stands for the concentration giving half of the maximal effect. With `Cc1cc(C(=O)N/N=C/c2ccc([N+](=O)[O-])s2)c2ccccc2n1`, the EC50 was 7.6 µM (active) in [3], 0.623 µM (active) in test [6], > 30 µM (not active) in [7] and 13 µM (active) in test [8]. Also, the figures for the IC50 in test [4] and in test [5] were 15.8 µM (active) and > 20 µM (inactive), respectively.

For orientation: AC50 means the midpoint of the concentration-response curve, whichever way the signal moves. As to `COc1ccc(Nc2cc(C)nc(NCc3ccccc3)n2)cc1`, the IC50 in [9] was 1.14 µM (active); in test [10], 0.699 µM (active). In addition, the results for the EC50 in test [6] and in [7] were 0.12 µM (active) and > 60 µM (not active), respectively. Also, the AC50 in test [11] was 3.9 µM (active); in test [12] it was 22 µM (active); in test [13], 0.565 µM (active); in [14], 8.45 µM (active); in test [15], 26.7 µM (active); in [16] it was 3.16 µM (active). Also, the concentration at half-maximal activity (AC50) in test [17] is 21.2 µM (active).

`C=C1C(=O)O[C@@H]2C[C@@H](C)[C@@H]3C=CC(=O)[C@@]3(C)[C@@H](O)[C@H]12` [HELENALIN]: the EC50 in [18] was 4.62 µM (inconclusive); in test [19], 0.42 µM (active); in test [20] it was 8.32 µM (active); in [21], > 40 µM (inactive). In addition, the IC50 is 2.64 µM (active) in test [22]; 18.6 µM (active) in [23]; 1.02 µM (active) in test [24]; > 80 µM (inactive) in [25]; 1.92 µM (active) in [27]. Besides, the AC50 is 2.27 µM (active) in test [26], 0.825 µM (active) in [11], 4.35 µM (active) in test [12] and 1.53 µM (active) in test [13].
